The source of these data is article PMC10641813 (Journal of Medicinal Chemistry, 2023).

Data set [1] concerns the target T1, hCA I (Homo sapiens, UniProt P00915).
T1 construct: made in house
In words: Stopped flow CO2 hydrase assay, hCA I. The class given is biochemical. The conditions noted are these: for Ki: stopped flow technique, mean from three assays; for fold reduction in the inhibition of hCA I: relative to 11 (sulfonamide at para position).

The target of data set [2] is T2, hCA II (Homo sapiens, UniProt P00918).
T2 construct: made in house
In words: Stopped flow CO2 hydrase assay, hCA II. It counts as biochemical. Conditions: stopped flow technique, mean from three assays.

Data set [3] has as its target T3, hCA IX (Homo sapiens, UniProt Q16790).
T3 construct: made in house
Nature of the data set: Stopped flow CO2 hydrase assay, hCA IX. The class given is biochemical.

Data set [4] addresses T4, hCA XII (Homo sapiens, UniProt O43570).
T4 construct: made in house
Nature of the data set: Stopped flow CO2 hydrase assay, hCA XII. It counts as biochemical. Conditions: stopped flow technique, mean from three assays.

For data set [5], the system named is NCI/ADR-RES cells. Nature of the data set: Inhibition of growth of NCI/ADR-RES DOX-resistant cells. It counts as cell-based, human. Conditions: for IC50: DOX-resistant cell line derived from OVCAR-8, 96 h. How it is done: (§1) ; 11 and 15, NCI/ADR-RES and OVCAR-8 cells) to 4.8 (19, OVCAR-8 cells). […] . […] Cells were seeded in 96-well plates.
Data set [6] has as its system MCF-7 cells. Nature of the data set: Inhibition of growth of MCF-7 cells. It counts as cell-based, human. On the procedure:
as §1

Data set [7] deals with HT29/DX cells. Nature of the data set: Viability of HT29/DX cells with DOX alone or coincubated with 15 (WST-1). The class given is cell-based, human. The conditions noted are these: 5 μM DOX alone, 72 h. How it is done:
(§2) Cells were seeded in 96-well plates.
For orientation: Tetrazolium dyes change colour on reduction, which living cells bring about.

Data set [8] can be described thus: Viability of MDCK cells with DOX alone or coincubated with 15 (WST-1). It counts as cell-based, canine. The conditions noted are these: dog, MDCK cells (sensitive, parental); read-out: cell viability. How it is done:
as §2

Data set [9] deals with MDCK/P-gp cells. Nature of the data set: Viability of MDCK/P-gp cells with DOX alone or coincubated with 15 (WST-1). It counts as cell-based, canine. Conditions: 5 μM DOX alone, 72 h. How it is done: as §2
For data set [10], the system named is tubulin. In words: Tubulin assembly (polymerization) assay. The class given is biochemical. Conditions: at 20 μM.
Method: The reaction mixtures contained 0.8 M monosodium glutamate (pH 6.6 with HCl in a 2 M stock solution), 10 μM tubulin, 4% (v/v) DMSO, and varying concentrations of compound. […] The extent of the reaction was measured.
Data set [11] concerns OVCAR-8 cells. In words: Inhibition of growth of OVCAR-8 cells. It counts as cell-based, human. The conditions noted are these: ovarian tumor cell line 8, 96 h. On the procedure: as §1
The subject of data set [12] is SW480 cells. In words: Inhibition of growth of SW480 cells (XTT). Conditions: read-out: IC50 SW480; human colorectal carcinoma cells; combinations: each compound at its IC50 concentration.
Method: (§3) In drug combination studies, each compound was used at the corresponding IC50 concentration.
(§4) Cells were grown in Dulbecco’s modified Eagle’s medium (D-MEM) supplemented with 10% fetal bovine serum (FBS) at 37 °C with 5% CO2. In all experiments, 300,000 cells were plated in 9 cm^2 dishes and exposed to test compound dissolved in DMSO (0.1% final concentration) at the indicated concentrations. […] Cells were kept at low passage, returning to the original frozen stocks every 3–4 months.
For data set [13], the system named is SW620 cells. In words: Inhibition of growth of SW620 cells (XTT). Conditions: read-out: IC50 SW620; human colorectal carcinoma cells; combinations: each compound at its IC50 concentration.
Method: as §3, §4
The subject of data set [14] is HCT116 cells. In words: Inhibition of growth of HCT116 cells (MTT). Conditions: read-out: IC50 HCT116; human colorectal carcinoma cells; combinations: each compound at its IC50 concentration.
Method: as §3, §4
Data set [15] has as its system tubulin. The conditions noted are these: tubulin assembly; read-out: Tubulin IC50 ± SD; cited from earlier work.
The test system of data set [16] is tubulin. Conditions: cited from earlier work.
In data set [17] the test system is NCI/ADR-RES cells. Also on record: method as in PMID 22044164. Conditions: DOX-resistant cell line; cited from earlier work.
The mark [18] stands for this setting: stopped flow technique, mean from three assays.
The mark [19] stands for this setting: human nonmetastatic breast cancer epithelial cells.

Where “and” joins values, the source holds several entries; their conditions need not be identical. Identical values can stand only once. Like-named read-outs stand apart in the source and are kept apart here.

T1 sequence (P00915 whole entry): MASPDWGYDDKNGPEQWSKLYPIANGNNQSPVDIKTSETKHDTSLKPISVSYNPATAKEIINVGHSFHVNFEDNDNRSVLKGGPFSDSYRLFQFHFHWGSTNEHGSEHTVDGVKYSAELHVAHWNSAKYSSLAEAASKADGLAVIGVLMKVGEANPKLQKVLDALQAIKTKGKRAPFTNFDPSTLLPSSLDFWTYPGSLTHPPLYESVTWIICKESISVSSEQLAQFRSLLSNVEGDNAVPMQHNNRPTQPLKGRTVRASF
T4 sequence (O43570 25-354): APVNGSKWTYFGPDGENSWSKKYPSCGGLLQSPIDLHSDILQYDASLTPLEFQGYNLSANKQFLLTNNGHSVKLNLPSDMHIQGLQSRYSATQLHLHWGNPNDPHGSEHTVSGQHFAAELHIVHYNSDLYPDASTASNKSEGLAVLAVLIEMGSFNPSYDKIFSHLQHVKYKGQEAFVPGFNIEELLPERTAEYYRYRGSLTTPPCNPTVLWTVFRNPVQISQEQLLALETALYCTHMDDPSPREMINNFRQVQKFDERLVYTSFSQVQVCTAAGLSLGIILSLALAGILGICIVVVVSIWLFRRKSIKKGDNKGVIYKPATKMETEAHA

Usually Ki stands for the dissociation constant of the complex between target and ligand, obtained from inhibition or displacement. A low value points to higher affinity. In the case of `COc1cc(C(=O)c2cn(-c3cccc(S(N)(=O)=O)c3)c3ccccc23)cc(OC)c1OC` [Compound 20, 3-(3-(3,4,5-Trimethoxybenzoyl)-1H-indol-1-yl)benzenesulfonamide], the Ki is 943 nM in data set [1], 229 nM in data set [2], 69 nM in data set [3] (setting [18]) and 58.1 nM in data set [4].
One may read the EC50 as the concentration at which the effect is half-maximal. A lower EC50 goes with an effect from little substance. `COc1cc(C(=O)c2ccn(-c3cccc(S(N)(=O)=O)c3)c2)cc(OC)c1OC` [Compound 12, 3-(3-(3,4,5-Trimethoxybenzoyl)-1H-pyrrol-1-yl)benzenesulfonamide]: in data set [1], the “fold reduction in the inhibition of hCA I” value is on record as 6.7 fold. Besides, the Ki in data set [1] came to 644 nM; in data set [2], 84.2 nM; in data set [3] (setting [18]), 34.7 nM; in [4], 21.3 nM. The same compound gave a concentration giving a half-maximal response (EC50) in [5] (Homo sapiens, NCI/ADR-RES, DOX-resistant cell line) of 2100 to 2200 nM.
By IC50 is commonly meant the point on the concentration scale where inhibition reaches its midpoint. In data set [6] (Homo sapiens, MCF7, reference compound in the MCF-7 assay), `COc1ccc(/C=C\c2cc(OC)c(OC)c(OC)c2)cc1O` [CSA4, combretastatin A-4, reference compound] yielded an IC50 of 15 nM.
What is called viability is a read-out of living cells in per cent, often relative to untreated cells. Consider `COc1cccc2c1C(=O)c1c(O)c3c(c(O)c1C2=O)C[C@@](O)(C(=O)CO)C[C@@H]3O[C@H]1C[C@H](N)[C@H](O)[C@H](C)O1` [DOX, doxorubicin, reference compound], for which the cell viability result in data set [7] and in data set [9] was “did not affect the viability” in each case. In data set [8], the viability at 72 h, 5 μM was below 30%.
For the compound “4-(3-(3,4,5-trimethoxybenzoyl)-1H-pyrrol-1-yl)benzenesulfonamide [Compound 11]”, the Ki in [4] amounted to 11.5 nM. In addition, the “inhibition of tubulin assembly” value in [10] was “did not inhibit tubulin assembly”. Moreover, the IC50 in data set [6] (setting [19]) was 3900 ± 80 nM; in data set [11], 1900 ± 70 nM; in data set [5], 1900 nM and 2200 nM.
Take `COc1cc(C(=O)c2cn(-c3ccc(S(N)(=O)=O)cc3)c3ccccc23)cc(OC)c1OC` [Compound 19, 4-(3-(3,4,5-Trimethoxybenzoyl)-1H-indol-1-yl)benzenesulfonamide]: the figures for the inhibition constant Ki in data set [1], in data set [2] and in [3] were 446 nM, 67.8 nM and 7.3 nM, respectively. The “inhibition of tubulin assembly” value in data set [10] was “partial inhibition”. Further, the IC50 in [6] (setting [19]) was 3600 ± 1000 nM; in data set [11], 4800 ± 300 nM; in data set [5], 2100 ± 200 nM; in data set [12], 37400 ± 1400 nM; in [13], 45400 ± 1700 nM; in data set [14], 14900 ± 1300 nM.
Take `COc1cc(C(=O)c2ccn(-c3ccccc3)c2)cc(OC)c1OC` [Compound 2]: the IC50 in data set [15] is 1500 nM. Besides, the “inhibition of colchicine binding” value in data set [16] was 81%.
As for `COc1cc(C(=O)c2cn(-c3cccc(S(N)(=O)=O)c3)cc2-c2ccccc2)cc(OC)c1OC` [Compound 16, 3-(3-Phenyl-4-(3,4,5-trimethoxybenzoyl)-1H-pyrrol-1-yl)benzenesulfonamide], the Ki in data set [1] is 1030 nM; in data set [2], 186 nM; in data set [3] (setting [18]) it was 39.1 nM; in data set [4] it was 28.9 nM.
On to “4-(3-Benzoyl-1H-indol-1-yl)benzenesulfonamide [Compound 18]”, for which the figures for the inhibition constant (Ki) in [3] and in [4] were 31.6 nM and 52 nM, respectively.
Take `COc1cc(C(=O)c2cn(-c3ccccc3S(N)(=O)=O)c3ccccc23)cc(OC)c1OC` [Compound 21, 2-(3-(3,4,5-Trimethoxybenzoyl)-1H-indol-1-yl)benzenesulfonamide]: the Ki is above 10000 nM in data set [1], above 10000 nM in data set [2], 7750 nM in data set [3] (setting [18]) and 1190 nM in data set [4].
Consider `COc1cc(C(=O)c2cn(-c3ccccc3S(N)(=O)=O)cc2-c2ccccc2)cc(OC)c1OC` [Compound 17, 2-(3-Phenyl-4-(3,4,5-trimethoxybenzoyl)-1H-pyrrol-1-yl)benzenesulfonamide], for which the Ki is above 10000 nM in [1], above 10000 nM in data set [2], 8860 nM in data set [3] (setting [18]) and 1000 nM in [4].
With “4-(3-Benzoyl-4-phenyl-1H-pyrrol-1-yl)benzenesulfonamide [Compound 14]”, the Ki was 38.6 nM in [3] (setting [18]) and 59.4 nM in data set [4].
Take `COc1cc(C(=O)c2ccn(-c3ccccc3S(N)(=O)=O)c2)cc(OC)c1OC` [Compound 13, 2-(3-(3,4,5-Trimethoxybenzoyl)-1H-pyrrol-1-yl)benzenesulfonamide]: the “fold reduction in the inhibition of hCA I” value in [1] is listed as 61.0 fold. Besides, the Ki turned out to be 5840 nM in data set [1], 888 nM in data set [2], 229 nM in data set [3] (setting [18]) and 425 nM in data set [4].
Turning to `COc1cc(C(=O)c2cn(-c3ccccc3)cc2-c2ccccc2)cc(OC)c1OC` [Compound 3], the IC50 in data set [15] is 1100 nM. Further, the “inhibition of colchicine binding” value in data set [16] is recorded as 66%.
Regarding `CCC1=C[C@@H]2CN(C1)Cc1c([nH]c3ccccc13)[C@@](C(=O)OC)(c1cc3c(cc1OC)N(C)[C@H]1[C@@](O)(C(=O)OC)[C@H](OC(C)=O)[C@]4(CC)C=CCN5CC[C@]31[C@@H]54)C2` [vinorelbine], in data set [17], the half-maximal inhibitory concentration (IC50) is 5000 ± 1000 nM.
Turning to “4-(3-Benzoyl-1H-pyrrol-1-yl)benzenesulfonamide [Compound 10]”, the Ki in data set [3] (setting [18]) came to 66 nM; in data set [4] it was 47.1 nM.
